Experimental findings from ChEMBL document CHEMBL1151027, “Inhibition of human immunodeficiency virus-1 protease by a C2-symmetrical phosphinic acid amide” (Bioorg Med Chem Lett, 1994) are described below.

Assay [1] deals with Human immunodeficiency virus type 1 protease (Human immunodeficiency virus 1, UniProt Q72874). Briefly: Inhibitory activity if the compound was determined against HIV protease.
Assay [2] can be described thus: (§1) Effective concentration required to inhibit HIV replication in peripheral blood mononuclear cells (PBL). It counts as functional, Homo sapiens.
Assay [3] can be described thus: as §1. It counts as functional. The settings on record: Homo sapiens.

`CC(C)[C@H](NC(=O)[C@H](Cc1cccc2ccccc12)CS(=O)(=O)C(C)(C)C)C(=O)N[C@H](Cc1ccccc1)P(=O)(O)[C@@H](Cc1ccccc1)NC(=O)[C@@H](NC(=O)[C@H](Cc1cccc2ccccc12)CS(=O)(=O)C(C)(C)C)C(C)C`: in assay [1], half-maximal inhibition (IC50) was put at 0.085 µM. In assay [2] (Homo sapiens), this molecule registered an EC50 above 10 µM.

In assay [1], `CC(C)[C@H](NC(=O)[C@H](Cc1cccc2ccccc12)CS(=O)(=O)C(C)(C)C)C(=O)NCP(=O)(O)CNC(=O)[C@@H](NC(=O)[C@H](Cc1cccc2ccccc12)CS(=O)(=O)C(C)(C)C)C(C)C` returned a half-maximal inhibitory concentration (IC50) of 0.0011 µM. The same molecule showed an EC50 in assay [2] (Homo sapiens) above 10 µM.

`COP(=O)(CNC(=O)[C@@H](NC(=O)[C@H](Cc1cccc2ccccc12)CS(=O)(=O)C(C)(C)C)C(C)C)CNC(=O)[C@@H](NC(=O)[C@H](Cc1cccc2ccccc12)CS(=O)(=O)C(C)(C)C)C(C)C` gave an IC50 in assay [1] of 0.95 µM. Further, the EC50 in assay [2] (Homo sapiens) was above 10 µM.

`CC(C)[C@H](NC(=O)[C@H](Cc1cccc2ccccc12)CS(=O)(=O)C(C)(C)C)C(=O)NCP(N)(=O)CNC(=O)[C@@H](NC(=O)[C@H](Cc1cccc2ccccc12)CS(=O)(=O)C(C)(C)C)C(C)C`: it took 0.0055 µM to reach half-maximal inhibition in assay [1] (IC50). Further, the EC50 in assay [2] (Homo sapiens) was above 10 µM.

As to `CC(C)[C@H](NC(=O)[C@H](Cc1cccc2ccccc12)CS(=O)(=O)C(C)(C)C)C(=O)NC(Cc1ccccc1)P(N)(=O)C(Cc1ccccc1)NC(=O)[C@@H](NC(=O)[C@H](Cc1cccc2ccccc12)CS(=O)(=O)C(C)(C)C)C(C)C` (single isomer, unassigned), half-maximal inhibition in assay [1] (IC50) was put at 0.25 µM. In assay [2], the EC50 was above 10 µM.

As for `CC(C)[C@H](NC(=O)[C@H](Cc1cccc2ccccc12)CS(=O)(=O)C(C)(C)C)C(=O)NC(Cc1ccccc1)P(=O)(O)C(Cc1ccccc1)NC(=O)[C@@H](NC(=O)[C@H](Cc1cccc2ccccc12)CS(=O)(=O)C(C)(C)C)C(C)C` (single isomer, unassigned), the 50% inhibitory concentration (IC50) in assay [1] was 0.0005 µM. In assay [3], this molecule returned an EC50 above 10 µM.

In turn, `CC(C)[C@H](NC(=O)[C@H](Cc1cccc2ccccc12)CS(=O)(=O)C(C)(C)C)C(=O)NCP(=O)(CNC(=O)[C@@H](NC(=O)[C@H](Cc1cccc2ccccc12)CS(=O)(=O)C(C)(C)C)C(C)C)NN` gave an IC50 in assay [1] of 0.0085 µM. Further, in assay [2] (Homo sapiens), the EC50 is above 10 µM.

`CC(C)[C@H](NC(=O)[C@H](Cc1cccc2ccccc12)CS(=O)(=O)C(C)(C)C)C(=O)N[C@H](Cc1ccccc1)P(N)(=O)[C@@H](Cc1ccccc1)NC(=O)[C@@H](NC(=O)[C@H](Cc1cccc2ccccc12)CS(=O)(=O)C(C)(C)C)C(C)C` displayed a half-inhibitory concentration (IC50) in assay [1] of 0.001 µM. The molecule further showed an EC50 in assay [2] of 0.1 µM.
